Data as given in ChEMBL document CHEMBL1201862, “PubChem BioAssay data set” (2004).
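Step 1: Grow cells in 96-well plates. Step 2: Expose to compound for 48 hours at 5 concentrations. Step 3: Interpolate endpoints linearly; if unreached, use highest concentration. GI50 marks 50% less growth.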 Calls of active or inactive are those of the source. Cut-off read from the data, not from the text of the source: active = GI50 up to about 1.1 µM and inactive = higher.

Experiments:
Test in all cases: growth of human tumour cells (NCI), 48 h
[1] = tested on: SNB-19
[2] = tested on: SW-620
[3] = tested on: OVCAR-3
[4] = tested on: SNB-75
[5] = tested on: OVCAR-8
[6] = tested on: HCT-116
[7] = tested on: HL-60
[8] = tested on: NCI-H460
[9] = tested on: CCRF-CEM
[10] = tested on: RXF 393
[11] = tested on: KM-20L2
[12] = tested on: SN12C
[13] = tested on: M19-MEL
[14] = tested on: UO-31
[15] = tested on: ACHN
[16] = tested on: CAKI-1

| SMILES | GI50 [1] | GI50 [2] | GI50 [3] | GI50 [4] | GI50 [5] | GI50 [6] | GI50 [7] | GI50 [8] | GI50 [9] | GI50 [10] | GI50 [11] | GI50 [12] | GI50 [13] | GI50 [14] | GI50 [15] | GI50 [16] |
| --- | --- | --- | --- | --- | --- | --- | --- | --- | --- | --- | --- | --- | --- | --- | --- | --- |
| Cc1cc2c(cc1CO)N1Cc3cc(C)c(CO)cc3N(C2)C1 | > 100 µM (inactive) | > 100 µM (inactive) | > 100 µM (inactive) | > 100 µM (inactive) | > 100 µM (inactive) | > 100 µM (inactive) | > 100 µM (inactive) | > 100 µM (inactive) | > 100 µM (inactive) | > 100 µM (inactive) | > 100 µM (inactive) | > 100 µM (inactive) | > 100 µM (inactive) | – | – | – |
| COc1ccc(N/N=C(\CCN(C)C)c2ccccc2)cc1 | 3.01 µM (inactive) | 2.86 µM (inactive) | 2.81 µM (inactive) | 8.04 µM (inactive) | 12.8 µM (inactive) | 3.56 µM (inactive) | 2.82 µM (inactive) | 3.12 µM (inactive) | 1.41 µM (inactive) | 15.7 µM (inactive) | 0.489 µM (active) | 3.9 µM (inactive) | 3.82 µM (inactive) | 1.37 µM (inactive) | 1.36 µM (inactive) | – |
| COc1nc(NC2OCC(O)C(O)C2O)c(NC2OCC(O)C(O)C2O)c(=O)n1C (centres undefined) | > 100 µM (inactive) | > 100 µM (inactive) | > 100 µM (inactive) | > 100 µM (inactive) | > 100 µM (inactive) | > 100 µM (inactive) | > 100 µM (inactive) | > 100 µM (inactive) | > 100 µM (inactive) | > 100 µM (inactive) | > 100 µM (inactive) | > 100 µM (inactive) | > 100 µM (inactive) | > 100 µM (inactive) | > 100 µM (inactive) | – |
| NC(CCC(=O)Nc1ccc(O)cc1)C(=O)O (centres undefined) | > 100 µM (inactive) | > 100 µM (inactive) | > 100 µM (inactive) | > 100 µM (inactive) | > 100 µM (inactive) | > 100 µM (inactive) | > 100 µM (inactive) | > 100 µM (inactive) | > 100 µM (inactive) | > 100 µM (inactive) | > 100 µM (inactive) | > 100 µM (inactive) | – | > 100 µM (inactive) | > 100 µM (inactive) | > 100 µM (inactive) |
| N#CC1(c2nc3ccccc3o2)C(=O)C(=O)N(c2ccc(Cl)c(Cl)c2)C(=O)C1=O | > 100 µM (inactive) | > 100 µM (inactive) | > 100 µM (inactive) | > 100 µM (inactive) | > 100 µM (inactive) | – | 26 µM (inactive) | > 100 µM (inactive) | 48 µM (inactive) | > 100 µM (inactive) | > 100 µM (inactive) | > 100 µM (inactive) | – | > 100 µM (inactive) | > 100 µM (inactive) | > 100 µM (inactive) |
| c1cnc2c(c1)-n1cccc1C1(CCSC1)NN2 (centres undefined) | > 100 µM (inactive) | > 100 µM (inactive) | > 100 µM (inactive) | > 100 µM (inactive) | > 100 µM (inactive) | > 100 µM (inactive) | > 100 µM (inactive) | > 100 µM (inactive) | > 100 µM (inactive) | – | – | > 100 µM (inactive) | > 100 µM (inactive) | > 100 µM (inactive) | > 100 µM (inactive) | > 100 µM (inactive) |
| COC(=O)C(Cc1nc2ccccc2nc1O)C(=O)C(=O)Nc1ccc(OC)cc1[N+](=O)[O-] (centres undefined) | > 100 µM (inactive) | > 100 µM (inactive) | > 100 µM (inactive) | – | > 100 µM (inactive) | > 100 µM (inactive) | > 100 µM (inactive) | > 100 µM (inactive) | > 100 µM (inactive) | – | > 100 µM (inactive) | > 100 µM (inactive) | > 100 µM (inactive) | > 100 µM (inactive) | > 100 µM (inactive) | > 100 µM (inactive) |
| NC1CC(n2ccc(=O)[nH]c2=O)OC1C(O)CO (centres undefined) | > 100 µM (inactive) | > 100 µM (inactive) | > 100 µM (inactive) | > 100 µM (inactive) | > 100 µM (inactive) | > 100 µM (inactive) | > 100 µM (inactive) | > 100 µM (inactive) | > 100 µM (inactive) | > 100 µM (inactive) | > 100 µM (inactive) | > 100 µM (inactive) | > 100 µM (inactive) | > 100 µM (inactive) | > 100 µM (inactive) | – |
| CCCCc1c2c(nc3c1CCc1cc4c(nc1-3)-c1nc3c(c(CCCC)c1CC4)CCC/C3=C\c1ccccc1)/C(=C/c1ccccc1)CCC2 | 35.9 µM (inactive) | 67 µM (inactive) | 40.6 µM (inactive) | – | > 100 µM (inactive) | 65.3 µM (inactive) | 62.1 µM (inactive) | 28.2 µM (inactive) | 48.6 µM (inactive) | 23.3 µM (inactive) | > 100 µM (inactive) | > 100 µM (inactive) | > 100 µM (inactive) | > 100 µM (inactive) | – | 29.1 µM (inactive) |
